Measured values as given in patent US5716982A, “Retinoids and methods of use of same” (priority 1995, dated 1998).
Where two headings read alike, the source gives them in different places. Blank lines part the entries; values can stand above or below the molecule they belong to.

Legend:
[1] = system: HL-60 cells; assay: MTT assay in HL-60 cells; format: cell-based, human; conditions: for inhibition at 10 µM: 10^-5 M; for inhibition at 10 µM / inhibition at 1 µM / inhibition at 0.1 µM / inhibition at 0.01 µM: HL-60; for inhibition at 1 µM: 10^-6 M; for inhibition at 0.1 µM: 10^-7 M; for inhibition at 0.01 µM: 10^-8 M
Experimental: Human cancer cell lines (KB, A2780, MCF-7, HL-60, A549) were used. For a monolayer culture, 0.5 ml of trypsin solution ([…]) was added to the flasks for digestion. Microtiter plates (96 well) were used for the cell culture and 200 μl of cell suspension (1200 tumor cells) were placed in each well and incubated at 37° C. for 24 hours. Following the addition of the test compound, the control and treated flasks were placed in a CO2 incubator for 5 day culture. For the MTT assay, 200 μl of MTT solution (5 mg in 10 ml of phosphate buffer) plus the medium were added and incubated for another 4 hours. Following incubation, the supernatant was discarded and 200 μl of DMSO was added to each well. With a mild agitation the OD values were determined by the MR 700 Elisa at 570 nm (reference wavelength was 450 nm). The ED50 of the compound and tumor cell survival rate [formula] as percent inhibition were calculated.
(§1) The protocols of Examples 14 and 21 were used, for the NBT and MTT assays, respectively.

[2] = system: Human promyelocytic leukemia HL-60 cells; assay: Cell differentiation of HL-60 cells, nitroblue tetrazolium (NBT) reduction; format: cell-based; conditions: for EC50: Homo sapiens; for NBT (+) %: HL-60
Experimental: Human promyelocytic leukemia HL-60 cells were cultured in RPMI-1640 medium supplemented by 10% heat-inactivated calf serum and 100 U/ml of penicillin plus 100 μg/ml of streptomycin. The flasks containing cells and medium were incubated in an incubator with 5% CO2 at 37° C. Log phase cells were seeded into the medium at a concentration of 1.2×10^5to 1.4×10^5 cells per ml and cultured in flasks containing 5 ml of medium. Each group consisted of three flasks. Different concentrations of coumarin-retinoids were added. At intervals following the addition of coumarin-retinoids to the cultures, a small portion of cells was removed and live cells were counted under a light microscope using a dye-exclusionmethod with trypan blue. Cell differentiation was judged in terms of morphology and nitroblue tetrazolium (NBT) reduction.
For a determination of NBT reducing activity, a portion of the coumarin-retinoid-treated cells was removed at intervals following treatment and centrifuged. After centrifugation, 0.5 ml of 0.1% NBT (containing 100 ng TPA) was added to each tube. The contents of the test tubes were then incubated for 1 hour at 37° C. Cell smears were prepared from the cell sediment and stained using the Wright-Giemsa technique. For each smear prepared, 200 cells were isolated for examination under a light microscope with an oil immersion lens. Cells stained with blue-black granules were considered NBT-positive cells. The 50% differentiation or effective concentration (ED50 or EC50) is shown in terms of molar (M) concentration of the […] tested.
as §1

[3] = system: bone abnormalities in mouse fetus; assay: Bone abnormalities in mouse fetus (anti-teratogenicity); format: in vivo
Experimental: Female mice were examined by vaginal smear the morning after being caged with male mice, and if sperm or a vaginal plug was discovered, then the mice were determined to be pregnant. The retinoids were administered at the dosage indicated starting on the seventh day of pregnancy and continued once a day for the next ten days. On the 20th day after the female mice were determined to be pregnant, they were sacrificed by cervical dislocation. Both sides of the uterus were checked and the number of living embryos, dead embryos, and absorbed embryos were counted. The living embryos were further examined for bone abnormalities.
After the embryos became transparent, they were dissected and their skeletons were checked by observation under a microscope.

[4] = NBT reduction, 50% differentiation, HL-60 (Table 2), read-out: EC50
[5] = Homo sapiens, 120 h, MTT, HL-60 (Table 12), read-out: ED50 (the source's name)
[6] = Homo sapiens, 120 h, HL-60 (Table 15), read-out: MTT ED50
[7] = HL-60 (Table 15), read-out: NBT ED50

IC50 ([1]; HL-60 (Table 15), 7200 min, read-out: MTT ED50): 11 µM
Structure (SMILES): CC1=C(/C=C/C(C)=C/C=C/C(C)=C/C(=O)Oc2ccc3c(C)cc(=O)oc3c2)C(C)(C)CCC1 [Compound I-32, 4-methyl-7-retinoyloxy-coumarin]

EC50 [2, 4]: 0.75 µM
Structure (SMILES): CC(=O)c1cc2c(COC(=O)/C=C(C)/C=C/C=C(C)/C=C/C3=C(C)CCCC3(C)C)cc(OC(=O)/C=C(C)/C=C/C=C(C)/C=C/C3=C(C)CCCC3(C)C)cc2oc1=O [Compound I-7]

EC50 [2, 4]: 0.8 µM
Structure (SMILES): CC(=O)c1cc2ccc(OC(=O)/C=C(C)/C=C/C=C(C)/C=C/C3=C(C)CCCC3(C)C)c(C)c2oc1=O [Compound I-3]

IC50 [1, 5]: 0.9 µM
EC50 [2, 4]: 0.08 µM
Structure (SMILES): CC1=C(/C=C/C(C)=C/C=C/C(C)=C/C(=O)Oc2cc(C(=O)O)c3cc(C(N)=O)c(=O)oc3c2)C(C)(C)CCC1 [Compound I-26]
inhibition at 10 µM ([1]; Homo sapiens, MTT): 68.7 ± 0.2%
inhibition at 1 µM ([1]; Homo sapiens, MTT): 52.6 ± 0.5%
inhibition at 0.1 µM ([1]; Homo sapiens, MTT): 43.8 ± 1.3%
inhibition at 0.01 µM ([1]; Homo sapiens, MTT): 9.4 ± 3.7%

EC50 [2, 4]: 3 µM
Structure (SMILES): CCOC(=O)c1cc(OC(=O)/C=C(C)/C=C/C=C(C)/C=C/C2=C(C)CCCC2(C)C)cc2oc(=O)c(C(C)=O)cc12 [Compound I-11, 3-acetyl-5-ethoxycarbyl-7-retinoyloxy-coumarin]

Structure (SMILES): CC(=O)c1cc2ccc(OC(=O)/C=C(C)/C=C/C=C(C)/C=C/C3=C(C)CCCC3(C)C)c(OC(=O)/C=C(C)/C=C/C=C(C)/C=C/C3=C(C)CCCC3(C)C)c2oc1=O [Compound I-9]
IC50 [1, 5]: 0.95 µM
inhibition at 10 µM ([1]; Homo sapiens, MTT): 61.5 ± 1.9%
inhibition at 1 µM ([1]; Homo sapiens, MTT): 50.6 ± 0.5%
inhibition at 0.1 µM ([1]; Homo sapiens, MTT): 48.8 ± 0.5%
inhibition at 0.01 µM ([1]; Homo sapiens, MTT): 28 ± 5.2%
EC50 [2, 4]: 0.065 µM
Delayed Calcification, Occipital delay/fetus ([3]; 20 mg/kg): 0/75
Delayed Calcification, Sternum delay/fetus ([3]; 20 mg/kg): 0/75
Delayed Calcification, Occipital delay/fetus ([3]; 40 mg/kg): 3/77
Delayed Calcification, Sternum delay/fetus ([3]; 40 mg/kg): 2/77

IC50 [1, 6]: 3.2 µM
EC50 [2, 7]: > 10 µM
Structure (SMILES): CC1=C(/C=C/C(C)=C/C=C/C(C)=C/C(=O)Oc2cc(OC(=O)/C=C(C)/C=C/C=C(C)/C=C/C3=C(C)CCCC3(C)C)c3c(C)cc(=O)oc3c2)C(C)(C)CCC1 [Compound I-33, 4-methyl-5,7-diretinoyloxy-coumarin]

EC50 [2, 4]: 0.07 µM
Structure (SMILES): CC(=O)c1cc2c(C(=O)O)cc(OC(=O)/C=C(C)/C=C/C=C(C)/C=C/C3=C(C)CCCC3(C)C)cc2oc1=O [Compound I-4, 3-acetyl-5-carboxy-7-retinoyloxy coumarin]

IC50 [1, 6]: 3.2 µM
EC50 [2, 7]: > 10 µM
Structure (SMILES): CC1=C(/C=C/C(C)=C/C=C/C(C)=C/C(=O)Oc2ccc3c(C)cc(=O)oc3c2OC(=O)/C=C(C)/C=C/C=C(C)/C=C/C2=C(C)CCCC2(C)C)C(C)(C)CCC1 [Compound I-36, 4-methyl-7,8-diretinoyloxy-coumarin]

IC50 [1, 6]: > 10 µM
Structure (SMILES): CCc1cc2c(C)cc(=O)oc2cc1OC(=O)/C=C(C)/C=C/C=C(C)/C=C/C1=C(C)CCCC1(C)C [Compound I-31, 4-methyl-6-ethyl-7-retinoyloxy-coumarin]

IC50 [1, 5]: 0.1 µM
EC50 [2, 4]: 0.059 µM
Structure (SMILES): CC(=O)c1cc2c(OC(=O)/C=C(C)/C=C/C=C(C)/C=C/C3=C(C)CCCC3(C)C)c(C(=O)O)ccc2oc1=O [Compound I-8]
inhibition at 10 µM ([1]; Homo sapiens, MTT): 63.9 ± 2.9%
inhibition at 1 µM ([1]; Homo sapiens, MTT): 54 ± 1.9%
inhibition at 0.1 µM ([1]; Homo sapiens, MTT): 50.5 ± 0.9%
inhibition at 0.01 µM ([1]; Homo sapiens, MTT): 29.7 ± 1.4%

EC50 [2, 4]: 1 µM
Structure (SMILES): CCOC(=O)c1cc2ccc(OC(=O)/C=C(C)/C=C/C=C(C)/C=C/C3=C(C)CCCC3(C)C)cc2oc1=O [Compound I-17]

EC50 [2, 4]: 2 µM
Structure (SMILES): CC(=O)c1cc2c(C)cc(OC(=O)/C=C(C)/C=C/C=C(C)/C=C/C3=C(C)CCCC3(C)C)cc2oc1=O [Compound I-2]
NBT (+) % ([2]; 10^-5 M): 38%

IC50 [1, 6]: 2.6 µM
EC50 [2, 7]: 6.7 µM
Structure (SMILES): CC1=C(/C=C/C(C)=C/C=C/C(C)=C/C(=O)Oc2cc(=O)oc3ccc(C)cc23)C(C)(C)CCC1 [Compound I-35, 4-retinoyloxy-6-methyl-coumarin]

IC50 [1, 6]: > 10 µM
Structure (SMILES): CC1=C(/C=C/C(C)=C/C=C/C(C)=C/C(=O)Oc2ccc3c(C)cc(=O)oc3c2C)C(C)(C)CCC1 [Compound I-30]

IC50 [1, 5]: 0.9 µM
EC50 [2, 4]: 0.26 µM
Structure (SMILES): CCOC(=O)c1cc2ccc(OC(=O)/C=C(C)/C=C/C=C(C)/C=C/C3=C(C)CCCC3(C)C)c(C)c2oc1=O [Compound I-15]
inhibition at 10 µM ([1]; Homo sapiens, MTT): 54.5 ± 2.8%
inhibition at 1 µM ([1]; Homo sapiens, MTT): 48.8 ± 1.3%
inhibition at 0.1 µM ([1]; Homo sapiens, MTT): 34.6%
inhibition at 0.01 µM ([1]; Homo sapiens, MTT): 16.2 ± 2.4%

EC50 [2, 4]: 0.55 µM
Structure (SMILES): CC1=C(/C=C/C(C)=C/C=C/C(C)=C/C(=O)Oc2cc3oc(=O)c(C(N)=O)cc3cc2Cl)C(C)(C)CCC1 [Compound I-27]

IC50 [1, 6]: > 10 µM
Structure (SMILES): CC1=C(/C=C/C(C)=C/C=C/C(C)=C/C(=O)Oc2cc(=O)oc3ccc(C(C)(C)C)cc23)C(C)(C)CCC1 [Compound I-28, 4-retinoyloxy-6-t-butyl-coumarin]

IC50 [1, 5]: 1 µM
EC50 [2, 4]: 0.25 µM
Structure (SMILES): CCOC(=O)c1cc2c(OC(=O)/C=C(C)/C=C/C=C(C)/C=C/C3=C(C)CCCC3(C)C)cc(OC(=O)/C=C(C)/C=C/C=C(C)/C=C/C3=C(C)CCCC3(C)C)cc2oc1=O [Compound I-21]
inhibition at 10 µM ([1]; Homo sapiens, MTT): 61.2 ± 2.4%
inhibition at 1 µM ([1]; Homo sapiens, MTT): 49.9 ± 2.5%
inhibition at 0.1 µM ([1]; Homo sapiens, MTT): 32.5 ± 1.1%
inhibition at 0.01 µM ([1]; Homo sapiens, MTT): 21.8 ± 3.1%

EC50 [2, 4]: 0.01 µM
Structure (SMILES): CCCCCCCCCCCCOC(=O)c1cc(OC(=O)/C=C(C)/C=C/C=C(C)/C=C/C2=C(C)CCCC2(C)C)c(OC(=O)/C=C(C)/C=C/C=C(C)/C=C/C2=C(C)CCCC2(C)C)c2oc(=O)c(C(=O)OCC)cc12 [Compound I-12]

IC50 [1, 5]: 9 µM
Structure (SMILES): CCCCCCc1cc2cc(C(C)=O)c(=O)oc2c(C)c1OC(=O)/C=C(C)/C=C/C=C(C)/C=C/C1=C(C)CCCC1(C)C [Compound I-14]
inhibition at 10 µM ([1]; Homo sapiens, MTT): 52.6 ± 1.3%
inhibition at 1 µM ([1]; Homo sapiens, MTT): 30 ± 1.4%
inhibition at 0.1 µM ([1]; Homo sapiens, MTT): 10.4 ± 2.4%

EC50 [2, 4]: 10 µM
Structure (SMILES): CCOC(=O)c1cc2cc(Cl)c(OC(=O)/C=C(C)/C=C/C=C(C)/C=C/C3=C(C)CCCC3(C)C)cc2oc1=O [Compound I-18]

IC50 [1, 6]: 1.9 µM
EC50 [2, 7]: > 10 µM
Structure (SMILES): CC1=C(/C=C/C(C)=C/C=C/C(C)=C/C(=O)Oc2cc(=O)oc3c(C)cccc23)C(C)(C)CCC1 [Compound I-29]

EC50 [2, 4]: 9 µM
Structure (SMILES): CCOC(=O)c1cc2c(C(=O)O)cc(OC(=O)/C=C(C)/C=C/C=C(C)/C=C/C3=C(C)CCCC3(C)C)cc2oc1=O [Compound I-19]
NBT (+) % ([2]; 10^-4 M): 84%
NBT (+) % ([2]; 10^-5 M): 5%
NBT (+) % ([2]; 10^-7 M): 92%

IC50 [1, 5]: > 10 µM
Structure (SMILES): CCc1cc2cc(C(C)=O)c(=O)oc2cc1OC(=O)/C=C(C)/C=C/C=C(C)/C=C/C1=C(C)CCCC1(C)C [Compound I-13]
inhibition at 10 µM ([1]; Homo sapiens, MTT): 5.5 ± 3.9%
inhibition at 1 µM ([1]; Homo sapiens, MTT): 4.3 ± 6.1%
inhibition at 0.1 µM ([1]; Homo sapiens, MTT): 3.5 ± 3.9%

IC50 [1, 6]: > 10 µM
Structure (SMILES): CCCCCCc1cc2c(C)cc(=O)oc2cc1OC(=O)/C=C(C)/C=C/C=C(C)/C=C/C1=C(C)CCCC1(C)C [Compound I-34, 4-methyl-6-hexyl-7-retinoyloxy-coumar in]
